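Cells were grown in 96-well plates and exposed to each compound for 48 hours at five concentrations; endpoints were interpolated linearly between bracketing concentrations, or set to the highest concentration if not reached. GI50 is the concentration that inhibits growth by half. TGI marks complete inhibition of growth.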
Assays:
Assay in all cases: DTP human tumour cell line panel, 48 h
[1] = tested on: BT-549 breast
[2] = tested on: K-562 leukemia
[3] = tested on: OVCAR-5 ovarian
[4] = tested on: MDA-MB-231 breast
[5] = tested on: SN12C renal
[6] = tested on: SF-295 CNS
[7] = tested on: T-47D breast
[8] = tested on: SK-MEL-2 melanoma
[9] = tested on: MCF7 breast
[10] = tested on: LOX IMVI melanoma

SMILES	TGI [1]	TGI [2]	TGI [3]	TGI [4]	TGI [5]	TGI [6]	TGI [7]	TGI [8]	TGI [9]	TGI [10]	GI50 [1]	GI50 [4]	GI50 [7]	GI50 [8]	GI50 [2]	GI50 [5]	GI50 [6]	GI50 [10]	GI50 [9]
COC(=O)c1c(OC(C)=O)ccc2c1c1c(OC(C)=O)c3ccccc3c(OC(C)=O)c1n2Cc1cc(OC)cc(OC)c1	82.1 µM	> 100 µM	> 100 µM	> 100 µM	> 100 µM	> 100 µM	48.9 µM	12.5 µM	> 100 µM										
COCn1c(C)c(C)c2c(=O)oc(=O)[nH]c21	> 100 µM	> 100 µM	> 100 µM	> 100 µM	> 100 µM	> 100 µM	> 100 µM	> 100 µM	> 100 µM	> 100 µM									
Cc1oc2nc1C(=O)NCc1nc(cs1)C(=O)N[C@H](C(C)C)c1nc(cs1)C(=O)N[C@H]2C	> 100 µM	> 100 µM	> 100 µM	> 100 µM	> 100 µM	99.4 µM	> 100 µM		> 100 µM										
Nc1ccc2c(c1)C1Oc3ccccc3CC1CO2 (configuration not stated)	> 100 µM	> 100 µM	> 100 µM	> 100 µM	> 100 µM	> 100 µM	> 100 µM	> 100 µM	> 100 µM	> 100 µM									
Cc1cc(O)c(C(C)C)cc1NC(=O)Nc1cccc2ccccc12	36.1 µM	> 100 µM	56.4 µM	31.7 µM	40.5 µM	28.2 µM	> 100 µM	30.4 µM		49.9 µM									
Cc1c(CNc2ccc(Cl)c(C(=O)NC(CC(=O)O)C(=O)O)c2)ccc2nc(N)nc(N)c12 (configuration not stated)	> 1000 µM	> 1000 µM		> 1000 µM	> 1000 µM	> 1000 µM	> 1000 µM	> 1000 µM	> 1000 µM	> 1000 µM	666 µM	> 1000 µM	> 1000 µM	> 1000 µM					
CCCCC/C=C1/CC(CO)(COC(=O)CC(C(C)C)C(C)C)OC1=O (configuration not stated)	28.5 µM	66.3 µM	29.7 µM	32.5 µM	26 µM	19.5 µM	40.5 µM	42.9 µM	31.8 µM										
C=CCNC1=C2C[C@@H](C)C[C@@H](OC)C(OC(=O)CCCN(C)C)[C@H](C)/C=C(\C)[C@@H](OC(N)=O)[C@H](OC)/C=C\C=C(/C)C(=O)NC(=CC1=O)C2=O (some centres not stated)	27.6 µM	> 100 µM	28.5 µM	17.5 µM	12.6 µM	20.5 µM	24.7 µM	25.5 µM	12.1 µM	21.7 µM									
C=Nc1ccc([N+](=O)[O-])cc1		> 60.5 µM	> 100 µM		> 100 µM	> 100 µM		> 100 µM		> 100 µM									
CCOC(=O)C1=CN=C2C(=O)N(c3ccccc3)N(C)C2(C)C1=N (configuration not stated)	> 100 µM	> 100 µM	> 100 µM	> 100 µM	> 100 µM	> 100 µM		> 100 µM	> 100 µM	> 100 µM									
C(=N\Nc1ncc(-c2cc3cc4c(cc3o2)OCO4)s1)/c1c[nH]c2ccccc12	7.55 µM	> 100 µM			3.98 µM	4.31 µM	> 100 µM	8.07 µM	5.39 µM	1.7 µM	1.32 µM		2.09 µM	2.6 µM	0.382 µM	0.374 µM	1.82 µM	0.426 µM	0.566 µM
Nn1c(Cc2ccc(Cl)cc2)n[nH]c1=O		> 100 µM	> 100 µM	> 100 µM	> 100 µM	> 100 µM	> 100 µM	> 100 µM		> 100 µM									
CCNC(=S)N/N=C/c1cc(OC)ccc1O		> 100 µM	> 100 µM	> 100 µM	> 100 µM	> 100 µM	> 100 µM	> 100 µM	> 100 µM	> 100 µM									
CC(=O)Nc1ccc2c(C(=O)O)c(C)c(=O)[nH]c2n1	> 100 µM	> 100 µM	> 100 µM	> 100 µM	> 100 µM	> 100 µM	> 100 µM	> 100 µM	> 100 µM										
COC(=O)C1=C(C)N2CCCOC2(C)C(C(=O)OC)C1c1cccc(Cl)c1 (configuration not stated)		> 100 µM				88.9 µM		36.6 µM											
CCNc1nc(N)c(C(=O)c2ccc(Cl)cc2)s1	> 100 µM	> 100 µM	> 100 µM	> 100 µM	> 100 µM		> 100 µM	> 100 µM	> 100 µM	> 100 µM									
O=C(O)CC(NC(=O)Nc1ccc([N+](=O)[O-])cc1)C(=O)Nc1ccc([N+](=O)[O-])cc1 (configuration not stated)	> 100 µM	> 100 µM	> 100 µM	> 100 µM		> 100 µM	> 100 µM	> 100 µM	> 100 µM	> 100 µM									
Cc1cc2c(cc1-c1cc3c(cc1C)C(C(C)C)=C(O)C(=O)/C3=C\Nc1nc(-c3ccccc3)cs1)/C(=C/Nc1nc(-c3ccccc3)cs1)C(=O)C(O)=C2C(C)C	89 µM	> 100 µM		28.5 µM	48.4 µM	40.9 µM	> 100 µM	50.9 µM	41.1 µM										
Cc1ccc(S(=O)(=O)NC(=O)NC(Cc2c[nH]c3ccccc23)C(=O)O)cc1 (configuration not stated)	> 100 µM	> 100 µM	> 100 µM	> 100 µM	> 100 µM	> 100 µM	> 100 µM	> 100 µM		> 100 µM									
CC(C)CC(=O)NC(Nc1ccc(S(=O)(=O)Nc2ncccn2)cc1)(C(F)(F)F)C(F)(F)F	> 100 µM	> 100 µM	> 100 µM	> 100 µM	> 100 µM	> 100 µM	> 100 µM	> 100 µM		> 100 µM									
O=C1COC(c2ccccc2O)=NN1CCCN1CCCC1	> 100 µM		> 100 µM	> 100 µM	> 100 µM	> 100 µM	> 100 µM	> 100 µM	> 100 µM										
c1ccc2c(c1)c1c(n2CCOCCN2CCCCC2)CCCC1		26.7 µM	25.7 µM	24.4 µM	27.4 µM	29.7 µM	35.2 µM	21.1 µM	27.6 µM	28.3 µM									
CSC1=Nc2ccccc2-c2nc(-c3ccccc3)cc(-c3ccccc3)c2C1	> 100 µM	> 100 µM	> 100 µM	41.6 µM	> 100 µM	64.2 µM	76.4 µM			> 100 µM									

Source: PubChem BioAssay (NCI)
